One experiment deals with T1, human CD73 (Homo sapiens, UniProt P21589).
T1 construct: expressed in transfected cells
T1 sequence (P21589 27-549): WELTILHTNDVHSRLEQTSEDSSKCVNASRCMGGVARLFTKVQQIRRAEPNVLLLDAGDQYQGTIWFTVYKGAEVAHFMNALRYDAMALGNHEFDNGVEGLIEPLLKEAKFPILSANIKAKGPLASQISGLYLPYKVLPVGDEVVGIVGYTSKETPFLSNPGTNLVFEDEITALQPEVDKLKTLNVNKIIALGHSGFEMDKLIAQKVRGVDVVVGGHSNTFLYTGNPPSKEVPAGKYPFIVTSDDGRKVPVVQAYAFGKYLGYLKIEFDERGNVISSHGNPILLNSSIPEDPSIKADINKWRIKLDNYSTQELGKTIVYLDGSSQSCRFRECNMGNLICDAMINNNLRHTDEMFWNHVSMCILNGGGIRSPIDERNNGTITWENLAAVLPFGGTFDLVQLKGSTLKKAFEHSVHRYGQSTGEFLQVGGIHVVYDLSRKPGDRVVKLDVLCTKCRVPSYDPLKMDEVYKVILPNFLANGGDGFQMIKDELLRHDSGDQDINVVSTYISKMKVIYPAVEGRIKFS
Put plainly: Inhibitor activity against CD73 in cell based assay (CD73 expressing CHO-K1 cells). The conditions noted are these: CHO-K1 cells expressing human CD73, 150 μM AMP, 4 hours of incubation; read-out: CHO-K1 CELL VARIANT: CD73 IC50. The gist of the method: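 Stably transfected CHO-K1 cells expressing human CD73 (1×10^4/well) incubated 4 h with compound (8-point 1:3 titration, top 10 μM final, 0.2% DMSO) and 150 μM AMP. Residual AMP in supernatant measured by CellTiter-Glo luminescence with 1 μM ATP after 30 min at room temperature; IC50 by nonlinear regression of percent inhibition vs high/low controls.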

Experiment [1] deals with T2, Human CD73 (amino acid residues 27-549) (Homo sapiens, UniProt P21589).
T2 construct: Human CD73 (amino acid residues 27-549); His tag (N); made in house; host or cells: E. coli
T2 sequence (P21589 27-549): T1 sequence (P21589 27-549)
Description: CD73 enzymatic assay (luciferase-based indirect assay, CellTiter-Glo). The format is biochemical. Particulars: 0.4 nM CD73, 150 μM AMP, 1 hour at room temperature. The method, boiled down:
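His-tagged human CD73 (27-549) from E. coli, 0.4 nM, with 150 μM AMP in 50 mM HEPES pH 7.4, 0.01% Tween 20; 1 h at room temperature. AMP remaining read by CellTiter-Glo 2.0 luminescence with 1 μM final ATP after 30 min. IC50 from nonlinear regression of % inhibition.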
A general note: In ATP-based viability assays light output follows the ATP content of the culture.

These results are taken from patent publication US12509444B2, “Compounds and methods for CD73 modulation and indications therefor” (Plexxikon Inc., priority 2019, dated 2025).

One may read the IC50 as the concentration that gives 50% inhibition. As for `O=C(N[C@@H]1CC[C@H](NS(=O)(=O)c2ccccc2F)C1)O[C@@H]1CCN(c2cn[nH]c(=O)c2Cl)C1` [P-0237, (R)-1-(5-chloro-6-oxo-1,6-dihydropyridazin-4-yl)pyrrolidin-3-yl ((1R,3S)-3-((2-fluorophenyl)sulfonamido)cyclopentyl)carbamate], the IC50 (at human CD73; in experiment [1]) was 0.001 to 10 µM in each case.
`Cn1ncc(N2CC[C@@H](OC(=O)N[C@H]3CC[C@H](NS(=O)(=O)c4c(F)cccc4F)CC3)C2)c(Cl)c1=O` [P-0238, (R)-1-(5-chloro-1-methyl-6-oxo-1,6-dihydropyridazin-4-yl)pyrrolidin-3-yl ((1r,4R)-4-((2,6-difluorophenyl)sulfonamido)cyclohexyl)carbamate]: the concentration for half-maximal inhibition (IC50) (on human CD73; in experiment [1]) was 0.001 to 10 µM throughout.
As for `Cn1ncc(N2CC[C@@H](OC(=O)N[C@H]3CC[C@H](NS(=O)(=O)c4ccccc4Br)CC3)C2)c(Cl)c1=O` [P-0239, (R)-1-(5-chloro-1-methyl-6-oxo-1,6-dihydropyridazin-4-yl)pyrrolidin-3-yl ((1r,4R)-4-((2-bromophenyl)sulfonamido)cyclohexyl)carbamate], the IC50 (on human CD73; in experiment [1]) was 0.001 to 10 µM throughout.
Regarding `O=C(NCC1CCNCC1)O[C@@H]1CCN(c2cn[nH]c(=O)c2Cl)C1` [P-0240, (R)-1-(5-chloro-6-oxo-1,6-dihydropyridazin-4-yl)pyrrolidin-3-yl (piperidin-4-ylmethyl)carbamate], the concentration for half-maximal inhibition (IC50) (at human CD73; in experiment [1]) was 0.001 to 10 µM throughout.
Take `CC(=O)N1CCC(CNC(=O)O[C@@H]2CCN(c3cn[nH]c(=O)c3Cl)C2)CC1` [P-0241, (R)-1-(5-chloro-6-oxo-1,6-dihydropyridazin-4-yl)pyrrolidin-3-yl ((1-acetylpiperidin-4-yl)methyl)carbamate]: the half-inhibitory concentration (IC50) (at human CD73; in experiment [1]) was 0.001 to 10 µM each time.
Consider `O=CN1CCC(CNC(=O)O[C@@H]2CCN(c3cn[nH]c(=O)c3Cl)C2)CC1` [P-0242, (R)-1-(5-chloro-6-oxo-1,6-dihydropyridazin-4-yl)pyrrolidin-3-yl ((1-formylpiperidin-4-yl)methyl)carbamate], for which the IC50 (at human CD73; in experiment [1]) was 0.001 to 10 µM throughout.
Turning to `O=C(N[C@@H]1CC[C@H](NC(=O)c2ccccc2)C1)O[C@@H]1CCN(c2cn[nH]c(=O)c2Cl)C1` [P-0243, (R)-1-(5-chloro-6-oxo-1,6-dihydropyridazin-4-yl)pyrrolidin-3-yl ((1R,3S)-3-benzamidocyclopentyl) carbamate], the half-maximal inhibitory concentration (IC50) (on human CD73; in experiment [1]) was 0.001 to 10 µM in each case.
`COC(=O)Cn1ncc(N2CC[C@@H](OC(=O)NC3CCC(F)(F)CC3)C2)c(Cl)c1=O` [P-0244, methyl (R)-2-(5-chloro-4-(3-(((4,4-difluorocyclohexyl)carbamoyl)oxy)pyrrolidin-1-yl)-6-oxopyridazin-1(6H)-yl)acetate]: the IC50 fell in the range of 10 to 100 µM on human CD73 and 0.001 to 10 µM in experiment [1].
In the same order, the values of `COCCn1ncc(N2CC[C@@H](OC(=O)NC3CCC(F)(F)CC3)C2)c(Cl)c1=O` [P-0245, (R)-1-(5-chloro-1-(2-methoxyethyl)-6-oxo-1,6-dihydropyridazin-4-yl)pyrrolidin-3-yl (4,4-difluorocyclohexyl)carbamate] are 10 to 100 µM and 0.001 to 10 µM.
For `O=C(NC1CCC(F)(F)CC1)O[C@@H]1CCN(c2cnn(CC(O)CO)c(=O)c2Cl)C1` (stereo partly drawn) [P-0246, (3R)-1-(5-chloro-1-(2,3-dihydroxypropyl)-6-oxo-1,6-dihydropyridazin-4-yl)pyrrolidin-3-yl (4,4-difluorocyclohexyl)carbamate], the IC50 (on human CD73; in experiment [1]) was 0.001 to 10 µM in each case.
Consider `CCS(=O)(=O)N[C@H]1CC[C@H](NC(=O)O[C@@H]2CCN(c3cn[nH]c(=O)c3Cl)C2)CC1` [P-0247, (R)-1-(5-chloro-6-oxo-1,6-dihydropyridazin-4-yl)pyrrolidin-3-yl ((1r,4R)-4-(ethylsulfonamido)cyclohexyl) carbamate], for which the 50% inhibitory concentration (IC50) (at human CD73; in experiment [1]) was 0.001 to 10 µM each time.
Turning to `N#Cc1ccc(S(=O)(=O)N[C@H]2CC[C@H](NC(=O)O[C@@H]3CCN(c4cn[nH]c(=O)c4Cl)C3)CC2)cc1` [P-0248, (R)-1-(5-chloro-6-oxo-1,6-dihydropyridazin-4-yl)pyrrolidin-3-yl ((1r,4R)-4-((4-cyanophenyl)sulfonamido)cyclohexyl)carbamate], the IC50 (at human CD73; in experiment [1]) was 0.001 to 10 µM each time.
Regarding `Cc1cccc(S(=O)(=O)N[C@H]2CC[C@H](NC(=O)O[C@@H]3CCN(c4cn[nH]c(=O)c4Cl)C3)CC2)c1` [P-0249, (R)-1-(5-chloro-6-oxo-1,6-dihydropyridazin-4-yl)pyrrolidin-3-yl ((1r,4R)-4-((3-methylphenyl)sulfonamido)cyclohexyl)carbamate], the half-maximal inhibitory concentration (IC50) (at human CD73; in experiment [1]) was 0.001 to 10 µM throughout.
Regarding `Cc1ccccc1S(=O)(=O)N[C@H]1CC[C@H](NC(=O)O[C@@H]2CCN(c3cn[nH]c(=O)c3Cl)C2)CC1` [P-0250, (R)-1-(5-chloro-6-oxo-1,6-dihydropyridazin-4-yl)pyrrolidin-3-yl ((1r,4R)-4-((2-methylphenyl)sulfonamido)cyclohexyl)carbamate], the IC50 (at human CD73; in experiment [1]) was 0.001 to 10 µM throughout.
Consider `COc1ccc(S(=O)(=O)N[C@H]2CC[C@H](NC(=O)O[C@@H]3CCN(c4cn[nH]c(=O)c4Cl)C3)CC2)cc1` [P-0251, (R)-1-(5-chloro-6-oxo-1,6-dihydropyridazin-4-yl)pyrrolidin-3-yl ((1r,4R)-4-((4-methoxyphenyl)sulfonamido)cyclohexyl)carbamate], for which the half-maximal inhibitory concentration (IC50) (on human CD73; in experiment [1]) was 0.001 to 10 µM throughout.
For the molecule `COc1ccc(S(=O)(=O)N[C@H]2CC[C@H](NC(=O)O[C@@H]3CCN(c4cn[nH]c(=O)c4Cl)C3)CC2)cn1` [P-0252, (R)-1-(5-chloro-6-oxo-1,6-dihydropyridazin-4-yl)pyrrolidin-3-yl ((1r,4R)-4-((6-methoxypyridine)-3-sulfonamido)cyclohexyl) carbamate], the half-inhibitory concentration (IC50) (at human CD73; in experiment [1]) was 0.001 to 10 µM in each case.
As to `O=C(N[C@H]1CC[C@H](NS(=O)(=O)c2ccc(C(F)(F)F)nc2)CC1)O[C@@H]1CCN(c2cn[nH]c(=O)c2Cl)C1` [P-0253, (R)-1-(5-chloro-6-oxo-1,6-dihydropyridazin-4-yl)pyrrolidin-3-yl ((1r,4R)-4-((6-(trifluoromethyl)pyridine)-3-sulfonamido)cyclohexyl) carbamate], the 50% inhibitory concentration (IC50) (on human CD73; in experiment [1]) was 0.001 to 10 µM in each case.
With `O=C(N[C@H]1CC[C@H](NS(=O)(=O)c2ccc(C(F)(F)F)cc2)CC1)O[C@@H]1CCN(c2cn[nH]c(=O)c2Cl)C1` [P-0254, (R)-1-(5-chloro-6-oxo-1,6-dihydropyridazin-4-yl)pyrrolidin-3-yl ((1r,4R)-4-((4-(trifluoromethyl)phenyl)sulfonamido)cyclohexyl)carbamate], the half-inhibitory concentration (IC50) (at human CD73; in experiment [1]) was 0.001 to 10 µM throughout.
In the case of `Cn1cc(S(=O)(=O)N[C@H]2CC[C@H](NC(=O)O[C@@H]3CCN(c4cn[nH]c(=O)c4Cl)C3)CC2)cn1` [P-0255, (R)-1-(5-chloro-6-oxo-1,6-dihydropyridazin-4-yl)pyrrolidin-3-yl ((1r,4R)-4-((1-methyl-1H-pyrazole)-4-sulfonamido)cyclohexyl) carbamate], the IC50 (on human CD73; in experiment [1]) was 0.001 to 10 µM each time.
Regarding `O=C(N[C@H]1CC[C@H](NC(=O)c2cccnc2)CC1)O[C@@H]1CCN(c2cn[nH]c(=O)c2Cl)C1` [P-0256, (R)-1-(5-chloro-6-oxo-1,6-dihydropyridazin-4-yl)pyrrolidin-3-yl ((1r,4R)-4-(nicotinamido)cyclohexyl) carbamate], the IC50 (on human CD73; in experiment [1]) was 0.001 to 10 µM each time.
As to `O=C(N[C@H]1CC[C@H](NC(=O)C2CC2)CC1)O[C@@H]1CCN(c2cn[nH]c(=O)c2Cl)C1` [P-0257, (R)-1-(5-chloro-6-oxo-1,6-dihydropyridazin-4-yl)pyrrolidin-3-yl ((1r,4R)-4-(cyclopropanecarboxamido)cyclohexyl)carbamate], the IC50 (at human CD73; in experiment [1]) was 0.001 to 10 µM throughout.
As to `O=C(N[C@H]1CC[C@H](NC(=O)C2CCC2)CC1)O[C@@H]1CCN(c2cn[nH]c(=O)c2Cl)C1` [P-0258, (R)-1-(5-chloro-6-oxo-1,6-dihydropyridazin-4-yl)pyrrolidin-3-yl ((1r,4R)-4-(cyclobutanecarboxamido)cyclohexyl)carbamate], the IC50 (at human CD73; in experiment [1]) was 0.001 to 10 µM each time.
